Measurements: the supplement of paper PMC10307832

What was measured:
Experiment in all cases: relative viability (nuclei count vs DMSO), 5 days (fraction); higher = more cells survive
Vemurafenib + Lapatinib = compound: CCCS(=O)(=O)Nc1ccc(F)c(C(=O)c2c[nH]c3ncc(-c4ccc(Cl)cc4)cc23)c1F [Vemurafenib] + CS(=O)(=O)CCNCc1ccc(-c2ccc3ncnc(Nc4ccc(OCc5cccc(F)c5)c(Cl)c4)c3c2)o1 [Lapatinib] (partner 2 µM)
Summary of the method: (§1)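 Medians of duplicate plates are given as relative viability. That measure is the nuclei count in treated wells divided by the count in vehicle wells. Counts were taken on 4× images of lung cancer cell lines in 1536-well plates, 5 days after pin-tool dosing the day after seeding with one drug alone or a fixed anchor-drug dose plus five library-drug doses (not always all listed) in √10 steps.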

Vemurafenib + Vorinostat = compound: CCCS(=O)(=O)Nc1ccc(F)c(C(=O)c2c[nH]c3ncc(-c4ccc(Cl)cc4)cc23)c1F [Vemurafenib] + O=C(CCCCCCC(=O)Nc1ccccc1)NO [Vorinostat] (partner 1 µM)
Summary of the method: as §1

OSI-027 + Olaparib = compound: COc1cccc2cc(-c3nc([C@H]4CC[C@H](C(=O)O)CC4)n4ncnc(N)c34)[nH]c12 [OSI-027] + O=C(c1cc(Cc2n[nH]c(=O)c3ccccc23)ccc1F)N1CCN(C(=O)C2CC2)CC1 [Olaparib] (partner 8 µM)
Summary of the method: as §1

Alpelisib + AZD7762 = compound: Cc1nc(NC(=O)N2CCC[C@H]2C(N)=O)sc1-c1ccnc(C(C)(C)C(F)(F)F)c1 [Alpelisib] + NC(=O)Nc1cc(-c2cccc(F)c2)sc1C(=O)N[C@H]1CCCNC1 [AZD7762] (partner 0.2 µM)
Summary of the method: as §1

HCC-827
relative viability (Vemurafenib + Lapatinib; first compound 0.03162 µM): 0.209 | relative viability (Vemurafenib + Lapatinib; first compound 0.3162 µM): 0.22 | relative viability (Vemurafenib + Lapatinib; first compound 1 µM): 0.191 | relative viability (Vemurafenib + Vorinostat; first compound 0.03162 µM): 0.796 | relative viability (Vemurafenib + Vorinostat; first compound 0.3162 µM): 0.663 | relative viability (Vemurafenib + Vorinostat; first compound 1 µM): 0.816 | relative viability (OSI-027 + Olaparib; first compound 0.01 µM): 0.669 | relative viability (OSI-027 + Olaparib; first compound 0.03162 µM): 0.58 | relative viability (OSI-027 + Olaparib; first compound 0.1 µM): 0.648 | relative viability (OSI-027 + Olaparib; first compound 0.3162 µM): 0.599 | relative viability (OSI-027 + Olaparib; first compound 1 µM): 0.326 | relative viability (Alpelisib + AZD7762; first compound 0.04 µM): 0.253 | relative viability (Alpelisib + AZD7762; first compound 0.1265 µM): 0.212 | relative viability (Alpelisib + AZD7762; first compound 0.4 µM): 0.209 | relative viability (Alpelisib + AZD7762; first compound 1.265 µM): 0.199 | relative viability (Alpelisib + AZD7762; first compound 4 µM): 0.168

HOP-62
relative viability (Vemurafenib + Lapatinib; first compound 0.03162 µM): 0.915 | relative viability (Vemurafenib + Lapatinib; first compound 0.1 µM): 1.14 | relative viability (Vemurafenib + Lapatinib; first compound 0.3162 µM): 0.906 | relative viability (Vemurafenib + Lapatinib; first compound 1 µM): 0.796 | relative viability (Vemurafenib + Vorinostat; first compound 0.03162 µM): 0.515 | relative viability (Vemurafenib + Vorinostat; first compound 0.1 µM): 0.593 | relative viability (Vemurafenib + Vorinostat; first compound 0.3162 µM): 0.583 | relative viability (Vemurafenib + Vorinostat; first compound 1 µM): 0.484 | relative viability (OSI-027 + Olaparib; first compound 0.01 µM): 0.605 | relative viability (OSI-027 + Olaparib; first compound 0.03162 µM): 0.68 | relative viability (OSI-027 + Olaparib; first compound 0.1 µM): 0.456 | relative viability (OSI-027 + Olaparib; first compound 0.3162 µM): 0.594 | relative viability (OSI-027 + Olaparib; first compound 1 µM): 0.167 | relative viability (Alpelisib + AZD7762; first compound 0.04 µM): 0.607 | relative viability (Alpelisib + AZD7762; first compound 0.1265 µM): 0.386 | relative viability (Alpelisib + AZD7762; first compound 0.4 µM): 1.21 | relative viability (Alpelisib + AZD7762; first compound 1.265 µM): 0.651 | relative viability (Alpelisib + AZD7762; first compound 4 µM): 0.614

IA-LM
relative viability (Vemurafenib + Lapatinib; first compound 0.03162 µM): 0.764 | relative viability (Vemurafenib + Lapatinib; first compound 0.1 µM): 0.715 | relative viability (Vemurafenib + Lapatinib; first compound 0.3162 µM): 0.684 | relative viability (Vemurafenib + Lapatinib; first compound 1 µM): 0.608 | relative viability (Vemurafenib + Vorinostat; first compound 0.03162 µM): 0.975 | relative viability (Vemurafenib + Vorinostat; first compound 0.1 µM): 0.914 | relative viability (Vemurafenib + Vorinostat; first compound 0.3162 µM): 0.946 | relative viability (Vemurafenib + Vorinostat; first compound 1 µM): 0.966 | relative viability (OSI-027 + Olaparib; first compound 0.01 µM): 0.898 | relative viability (OSI-027 + Olaparib; first compound 0.03162 µM): 0.776 | relative viability (OSI-027 + Olaparib; first compound 0.1 µM): 0.733 | relative viability (OSI-027 + Olaparib; first compound 0.3162 µM): 0.485 | relative viability (OSI-027 + Olaparib; first compound 1 µM): 0.212

LC-2-ad
relative viability (Vemurafenib + Lapatinib; first compound 0.03162 µM): 0.881 | relative viability (Vemurafenib + Lapatinib; first compound 0.1 µM): 0.928 | relative viability (Vemurafenib + Lapatinib; first compound 0.3162 µM): 0.778 | relative viability (Vemurafenib + Lapatinib; first compound 1 µM): 0.866 | relative viability (Vemurafenib + Vorinostat; first compound 0.03162 µM): 0.627 | relative viability (Vemurafenib + Vorinostat; first compound 0.1 µM): 0.669 | relative viability (Vemurafenib + Vorinostat; first compound 0.3162 µM): 0.364 | relative viability (Vemurafenib + Vorinostat; first compound 1 µM): 0.687 | relative viability (OSI-027 + Olaparib; first compound 0.01 µM): 0.774 | relative viability (OSI-027 + Olaparib; first compound 0.03162 µM): 0.721 | relative viability (OSI-027 + Olaparib; first compound 0.1 µM): 0.836 | relative viability (OSI-027 + Olaparib; first compound 0.3162 µM): 0.87 | relative viability (OSI-027 + Olaparib; first compound 1 µM): 0.737 | relative viability (Alpelisib + AZD7762; first compound 0.04 µM): 0.812 | relative viability (Alpelisib + AZD7762; first compound 0.1265 µM): 0.874 | relative viability (Alpelisib + AZD7762; first compound 0.4 µM): 0.863 | relative viability (Alpelisib + AZD7762; first compound 1.265 µM): 0.684 | relative viability (Alpelisib + AZD7762; first compound 4 µM): 0.583

LCLC-97TM1
relative viability (Vemurafenib + Lapatinib; first compound 0.03162 µM): 0.825 | relative viability (Vemurafenib + Lapatinib; first compound 0.1 µM): 0.981 | relative viability (Vemurafenib + Lapatinib; first compound 0.3162 µM): 1.63 | relative viability (Vemurafenib + Lapatinib; first compound 1 µM): 0.696 | relative viability (Vemurafenib + Vorinostat; first compound 0.1 µM): 0.74 | relative viability (Vemurafenib + Vorinostat; first compound 0.3162 µM): 0.777 | relative viability (Vemurafenib + Vorinostat; first compound 1 µM): 0.42 | relative viability (OSI-027 + Olaparib; first compound 0.01 µM): 0.59 | relative viability (OSI-027 + Olaparib; first compound 0.03162 µM): 0.438 | relative viability (OSI-027 + Olaparib; first compound 0.1 µM): 0.325 | relative viability (OSI-027 + Olaparib; first compound 0.3162 µM): 0.281 | relative viability (OSI-027 + Olaparib; first compound 1 µM): 0.347 | relative viability (Alpelisib + AZD7762; first compound 0.04 µM): 0.165 | relative viability (Alpelisib + AZD7762; first compound 0.1265 µM): 0.305 | relative viability (Alpelisib + AZD7762; first compound 0.4 µM): 0.34 | relative viability (Alpelisib + AZD7762; first compound 1.265 µM): 0.289 | relative viability (Alpelisib + AZD7762; first compound 4 µM): 0.166

LCLC-103H
relative viability (Vemurafenib + Vorinostat; first compound 0.03162 µM): 0.728 | relative viability (Vemurafenib + Vorinostat; first compound 0.1 µM): 0.791 | relative viability (Vemurafenib + Vorinostat; first compound 0.3162 µM): 0.657 | relative viability (Vemurafenib + Vorinostat; first compound 1 µM): 0.721 | relative viability (OSI-027 + Olaparib; first compound 0.01 µM): 0.731 | relative viability (OSI-027 + Olaparib; first compound 0.03162 µM): 0.753 | relative viability (OSI-027 + Olaparib; first compound 0.1 µM): 0.749 | relative viability (OSI-027 + Olaparib; first compound 0.3162 µM): 0.702 | relative viability (OSI-027 + Olaparib; first compound 1 µM): 0.817 | relative viability (Alpelisib + AZD7762; first compound 0.04 µM): 0.72 | relative viability (Alpelisib + AZD7762; first compound 0.1265 µM): 0.872 | relative viability (Alpelisib + AZD7762; first compound 0.4 µM): 0.631 | relative viability (Alpelisib + AZD7762; first compound 1.265 µM): 0.61 | relative viability (Alpelisib + AZD7762; first compound 4 µM): 0.591

NCI-H441
relative viability (Vemurafenib + Vorinostat; first compound 0.03162 µM): 0.875 | relative viability (Vemurafenib + Vorinostat; first compound 0.1 µM): 0.663 | relative viability (Vemurafenib + Vorinostat; first compound 0.3162 µM): 0.652 | relative viability (Vemurafenib + Vorinostat; first compound 1 µM): 0.642 | relative viability (OSI-027 + Olaparib; first compound 0.01 µM): 0.649 | relative viability (OSI-027 + Olaparib; first compound 0.03162 µM): 0.58 | relative viability (OSI-027 + Olaparib; first compound 0.1 µM): 0.548 | relative viability (OSI-027 + Olaparib; first compound 0.3162 µM): 0.494 | relative viability (OSI-027 + Olaparib; first compound 1 µM): 0.3 | relative viability (Alpelisib + AZD7762; first compound 0.04 µM): 1.28 | relative viability (Alpelisib + AZD7762; first compound 0.1265 µM): 1.14 | relative viability (Alpelisib + AZD7762; first compound 0.4 µM): 1.35 | relative viability (Alpelisib + AZD7762; first compound 1.265 µM): 1.22 | relative viability (Alpelisib + AZD7762; first compound 4 µM): 1.07

NCI-H520
relative viability (Vemurafenib + Lapatinib; first compound 0.03162 µM): 0.759 | relative viability (Vemurafenib + Lapatinib; first compound 0.1 µM): 0.839 | relative viability (Vemurafenib + Lapatinib; first compound 0.3162 µM): 0.859 | relative viability (Vemurafenib + Lapatinib; first compound 1 µM): 0.751 | relative viability (Vemurafenib + Vorinostat; first compound 0.03162 µM): 0.68 | relative viability (Vemurafenib + Vorinostat; first compound 0.1 µM): 0.714 | relative viability (Vemurafenib + Vorinostat; first compound 0.3162 µM): 0.718 | relative viability (Vemurafenib + Vorinostat; first compound 1 µM): 0.497 | relative viability (OSI-027 + Olaparib; first compound 0.01 µM): 0.286 | relative viability (OSI-027 + Olaparib; first compound 0.03162 µM): 0.313 | relative viability (OSI-027 + Olaparib; first compound 0.1 µM): 0.293 | relative viability (OSI-027 + Olaparib; first compound 0.3162 µM): 0.216 | relative viability (OSI-027 + Olaparib; first compound 1 µM): 0.208

NCI-H522
relative viability (Vemurafenib + Vorinostat; first compound 0.03162 µM): 0.901 | relative viability (Vemurafenib + Vorinostat; first compound 0.1 µM): 0.846 | relative viability (Vemurafenib + Vorinostat; first compound 0.3162 µM): 0.835 | relative viability (Vemurafenib + Vorinostat; first compound 1 µM): 0.714 | relative viability (OSI-027 + Olaparib; first compound 0.01 µM): 0.544 | relative viability (OSI-027 + Olaparib; first compound 0.03162 µM): 0.668 | relative viability (OSI-027 + Olaparib; first compound 0.1 µM): 0.524 | relative viability (OSI-027 + Olaparib; first compound 0.3162 µM): 0.679 | relative viability (OSI-027 + Olaparib; first compound 1 µM): 0.449 | relative viability (Alpelisib + AZD7762; first compound 0.04 µM): 0.791 | relative viability (Alpelisib + AZD7762; first compound 0.1265 µM): 0.987 | relative viability (Alpelisib + AZD7762; first compound 0.4 µM): 0.729 | relative viability (Alpelisib + AZD7762; first compound 1.265 µM): 0.702 | relative viability (Alpelisib + AZD7762; first compound 4 µM): 0.678

NCI-H661
relative viability (Vemurafenib + Lapatinib; first compound 0.03162 µM): 0.488 | relative viability (Vemurafenib + Lapatinib; first compound 0.1 µM): 0.534 | relative viability (Vemurafenib + Lapatinib; first compound 0.3162 µM): 0.507 | relative viability (Vemurafenib + Lapatinib; first compound 1 µM): 0.424 | relative viability (Vemurafenib + Vorinostat; first compound 0.03162 µM): 0.73 | relative viability (Vemurafenib + Vorinostat; first compound 0.1 µM): 0.72 | relative viability (Vemurafenib + Vorinostat; first compound 0.3162 µM): 0.803 | relative viability (Vemurafenib + Vorinostat; first compound 1 µM): 0.749 | relative viability (OSI-027 + Olaparib; first compound 0.01 µM): 0.852 | relative viability (OSI-027 + Olaparib; first compound 0.03162 µM): 0.735 | relative viability (OSI-027 + Olaparib; first compound 0.1 µM): 0.748 | relative viability (OSI-027 + Olaparib; first compound 0.3162 µM): 0.712 | relative viability (OSI-027 + Olaparib; first compound 1 µM): 0.423

NCI-H1299
relative viability (Vemurafenib + Lapatinib; first compound 0.03162 µM): 0.965 | relative viability (Vemurafenib + Lapatinib; first compound 0.1 µM): 0.93 | relative viability (Vemurafenib + Lapatinib; first compound 0.3162 µM): 0.885 | relative viability (Vemurafenib + Lapatinib; first compound 1 µM): 0.952 | relative viability (OSI-027 + Olaparib; first compound 0.01 µM): 1.02 | relative viability (OSI-027 + Olaparib; first compound 0.03162 µM): 0.998 | relative viability (OSI-027 + Olaparib; first compound 0.1 µM): 0.956 | relative viability (OSI-027 + Olaparib; first compound 0.3162 µM): 1.04 | relative viability (OSI-027 + Olaparib; first compound 1 µM): 0.796
